In US20250144050A1, “AMINOTHIOL-CONJUGATES, COMPOSITIONS, AND METHODS OF USE THEREOF” (THE BURLINGTON HC RESEARCH GROUP, INC., priority 2021, published 2025):
Read-outs that look alike come from different tables or passages of the source.

Experiments:
[1] = tested on: MDA-MB-231 cells; experiment: CyQUANT cell viability assay, 48-hour exposure; format: cell-based, human
Procedure: (§1) After drug treatments, fluorescence readings from 96-well plates were obtained using the CyQUANT dye and compared to standard curves for each cell line to determine cell viability. […] Trypan blue exclusion was used to estimate cell numbers in a few pilot experiments and was thereafter applied to confirm cell death.
A series of experiments was conducted to assess the relative efficacy of 4SP65, 1LP65, and amifostine as single agents in the same human cancer cell lines. First, the effectiveness of 4SP65 was tested against 15 cancer cell lines derived from seven tissues. […] The effectiveness of 0 to ≤500 μM amifostine was tested in sets of cancer cell lines reported to have either medium, high, or no expression of alkaline phosphatase.
Trans. R Soc. Lond. […] Using cell numbers based on fluorescence measurements and standard curves [time zero, (Tz), control growth, (C), and test growth in the presence of drug at five or more concentration levels (Ti)], the percentage growth was calculated at each drug concentration level. The percentage of growth inhibition was calculated as follows:
(§2) The LC50/99 was calculated using Equation 2=−50 and Eq. 2=−99, respectively. […] For NHMECs, the relationships between drug exposure levels and fluorescence units were used to define dose-response metrics. The selectivity index (SI) values for individual drug treatments were calculated as IC50 levels in NHMECs divided by the IC50 values in cancer cell lines.

[2] = tested on: PC3 cells; experiment: CyQUANT cell viability assay, 48-hour exposure; format: cell-based; conditions: Homo sapiens, PC-3
Procedure: as §1
A series of experiments was conducted to assess the relative efficacy of 4SP65, 1LP65, and amifostine as single agents in the same human cancer cell lines. First, the effectiveness of 4SP65 was tested against 15 cancer cell lines derived from seven tissues. […]
Trans. […] Using cell numbers based on fluorescence measurements and standard curves [time zero, (Tz), control growth, (C), and test growth in the presence of drug at five or more concentration levels (Ti)], the percentage growth was calculated at each drug concentration level. The percentage of growth inhibition was calculated as follows:
as §2

[3] = tested on: Vero cells; experiment: Dose-response metrics in immortalized, non-tumorigenic cells; format: cell-based
Procedure: (§3) To determine potential cytostatic or cytocidal effects of BRG prodrugs in immortalized, non-tumorigenic cells, Vero, HEK-293t, LP9, and HPM3 cells were exposed to 4SP65 while only Vero cells also were treated with 1LP65. […] Comparisons across other dose-response metrics could not be made because such levels of effects were not induced in NHMECs exposed to 4SP65. […] Since cytostatic and cytolytic effects at the TGI and LC50/99 levels were induced in Vero cells exposed to 1LP65 but not in NHMECs, there is a significant difference in the effects of 1LP65 in Vero cells compared to NHMECs, but p values based upon t-test evaluations cannot be defined due to lack of numerical data.

[4] = Solubility testing; format: physicochemical
Procedure: (§4) The solubility of 4SP65 was tested in de-ionized water, PBS, DMSO, and RPMI or DMEM base medium with and without FBS. […] The difference in the starting weight of drug placed into solvent minus the weight of the residue after drying on a vacuum pump was considered to represent the amount of drug that went into solution. The amount of drug that was dissolved at a given time ranged from 40 to 61%, averaging 49.7±8.1% (SD). The weight of the 4SP65 in solution was then used for diluting the drug to concentrations of 200 or 400 μM in supplemented RPMI or DMEM/F12 medium for routine treatment of cells. The dried residue was not used in the in vitro drug efficacy studies. […] However, unintended topical entanglements between polymer chains of multi-arm PEG-thiol molecules without disulfide formation have been reported (Tang and Olsen, “Controlling Topological Entanglement in Engineered Protein Hydrogels with a Variety of Thiol Coupling Chemistries,” Front. Chem. 2:23 (2014), which is hereby incorporated by reference in its entirety). Aliquots of 4SP65 dissolved in FBS enriched medium has remained stable for >6 months while remnants of the original viscous polymer have maintained stability without any apparent loss of activity when stored for 60 months at −20° C.
(§5) The boc deprotected aminothiol conjugated to m-PEG6-thiol was dried on a vacuum pump overnight to yield a viscous oil that on analysis gave rise to spectra corresponding to 1LP65 as a di-trifluroacetic acid salt at a MW of 672.87 Da (FIG. 15), or a MW of 483 once dissolved in solution. As such, 1LP65 is soluble 100% DMSO or aqueous solution. However, the bulk of the product was dissolved at 40 mM in DMSO and stored in aliquots at −80° C. for future use once by further dilution in DMSO and then final dilution in medium for treatment of normal human epithelium and human cancer cell lines at working solutions of 4 mM or 400 μM drug. 1LP65 has maintained stability for six months in frozen aliquots but should be stable in DMSO at −80° C. for two to three years based upon recommended storage conditions for cystamine dihydrochloride (Selleck Chemical product information), an analogous 225 Da compound with a disulfide bond and amine groups like 1LP65.

[5] = Storage stability; format: physicochemical
Procedure: as §4
as §5, with “1LP65 has maintained stability for six months in frozen aliquots but should be stable in DMSO at −80° C. for two to three years based upon recommended storage conditions for cystamine dihydrochloride (Selleck Chemical product information), an analogous 225 Da compound with a disulfide bond and amine groups like 1LP65.” left out

[6] = tested on: HMESO-1 malignant mesothelioma cells; format: cell-based
Procedure: (§6) Trypan Blue exclusion was applied as a complementary confirmation probe for cell death.
(§7) Statistical comparisons of differences in individual dose-response metrics between individual/paired drug treatments and various cell lines were conducted using the Student's t-test, with P-values <0.05 considered significant.
(§8) Relative cell growth inhibition values for differing levels each drug alone and in combination were input into SynergyFinder to generated dose-response curves for each drug alone, to produce a dose-response matrix, to visualize the distribution of areas of differing degrees of synergism in a 2-dimension heatmap and 3-dimension volcano plot, and to calculate average and maximum synergy scores in selected human cancer cell lines. […] Synergy scores <10 means that the interaction between two drugs was likely to be antagonistic; scores from −10 to 10 means the interaction between two drugs was likely to be additive; and scores >10 means the interaction between two drugs was likely to be synergistic.

[7] = tested on: PPM-Mill malignant mesothelioma cells; format: cell-based
Procedure: as §6, §7, §8

[8] = tested on: SKOV3 ovarian cancer cells; format: cell-based
Procedure: as §6, §7, §8

[9] = tested on: TOV21G ovarian cancer cells; format: cell-based
Procedure: as §6, §7, §8

[10] = tested on: HEK-293t cells; format: cell-based
Procedure: as §3

[11] = tested on: LP9 cells; format: cell-based
Procedure: as §3

[12] = tested on: A549 NSCLC cells; conditions: 48 h; for GI50 / IC50 / LC99 / TGI: each drug alone
Procedure: as §6, §7, §8

[13] = PPM-Mill, each drug alone, 48 h

**Q.** Which GI50 ([1]; Homo sapiens, MDA-MB-231 cells, 48 hours) does the source give for COCCOCCOCCOCCOCCOCCSSCCNCCCN [1LP65, m-PEG6-S-S-WR1065] here?
**A.** 41.8 µM

**Q.** And the GI50 [2]?
**A.** 22.9 µM

**Q.** And the GI50 ([3]; Chlorocebus sabaeus, Vero)?
**A.** 46.6 ± 2.6 µM

**Q.** And the LC99 ([3]; VERO)?
**A.** 183.4 ± 6.2 µM

**Q.** What about the TGI ([3]; VERO) of the same compound?
**A.** 82.8 ± 2.9 µM

**Q.** What about the solubility ([4]; 100% DMSO or aqueous solution) of the same compound?
**A.** soluble

**Q.** What about the time stability maintained ([5]; frozen aliquots, 40 mM in DMSO at −80° C.) of the same compound?
**A.** six

**Q.** With 4-star PEG-S-S-WR1065 [4SP65] as the compound, how does the selectivity index ([1]; IC50 of 76 in most sensitive NHMEC strain / IC50 in MDA-MB-231) read?
**A.** > 16

**Q.** What about the CC50 [6] of the same compound?
**A.** 7 ± 0.1 µM

**Q.** And the GI50 ([6]; HMESO-1, each drug alone, 48 h)?
**A.** 2 ± 0.3 µM

**Q.** What about the IC50 ([6]; HMESO-1, each drug alone, 48 h) of the same compound?
**A.** 4.7 ± 0.2 µM

**Q.** What about the LC99 ([6]; HMESO-1, each drug alone, 48 h) of the same compound?
**A.** 12.4 ± 0.1 µM

**Q.** And the TGI ([6]; HMESO-1, each drug alone, 48 h)?
**A.** 4.3 ± 0.2 µM

**Q.** What about the CC50 [7] of the same compound?
**A.** 16.2 ± 3.2 µM

**Q.** What about the GI50 [7, 13] of the same compound?
**A.** 8.4 ± 1.5 µM

**Q.** And the IC50 [7, 13]?
**A.** 10 ± 1.9 µM

**Q.** And the LC99 [7, 13]?
**A.** 17.6 ± 3.5 µM

**Q.** And the TGI [7, 13]?
**A.** 14.1 ± 3.3 µM

**Q.** And the CC50 [8]?
**A.** 9.7 ± 0.5 µM

**Q.** And the GI50 ([8]; SKOV3, each drug alone, 48 h)?
**A.** 4.3 ± 1 µM

**Q.** What about the IC50 ([8]; SKOV3, each drug alone, 48 h) of the same compound?
**A.** 5.2 ± 1 µM

**Q.** What about the LC99 ([8]; SKOV3, each drug alone, 48 h) of the same compound?
**A.** 10.0 ± 0.8 µM

**Q.** And the TGI ([8]; SKOV3, each drug alone, 48 h)?
**A.** 7.3 ± 0.8 µM

**Q.** And the “fold more effective as cytostatic agent than PRIMA-1/PRIMA-1met (GI50)” value ([8]; TP53-null SKOV3 cells)?
**A.** 16 fold

**Q.** And the CC50 [9]?
**A.** 2.7 ± 0.1 µM

**Q.** What about the “LC99, amount of each drug in combination” value ([9]; TOV21G, 4SP65-cisplatin combined, 48 h) of the same compound?
**A.** 0.95 µM

**Q.** And the GI50 ([9]; TOV21G, each drug alone, 48 h)?
**A.** 0.93 ± 0.37 µM

**Q.** And the IC50 ([9]; TOV21G, each drug alone, 48 h)?
**A.** 1.2 ± 0.3 µM

**Q.** And the LC99 ([9]; TOV21G, each drug alone, 48 h)?
**A.** 3.0 µM

**Q.** And the TGI ([9]; TOV21G, each drug alone, 48 h)?
**A.** 2.0 ± 0.4 µM

**Q.** And the CC50 [3]?
**A.** 11.6 ± 6.3 µM

**Q.** What about the GI50 ([3]; VERO) of the same compound?
**A.** 2.9 ± 1.4 µM

**Q.** What about the LC99 ([3]; VERO) of the same compound?
**A.** 14.0 ± 9.9 µM

**Q.** What about the TGI ([3]; VERO) of the same compound?
**A.** 6.4 ± 2.6 µM

**Q.** And the CC50 [10]?
**A.** 60.6 µM

**Q.** And the GI50 ([10]; HEK-293t)?
**A.** 15.8 µM

**Q.** What about the LC99 ([10]; HEK-293t) of the same compound?
**A.** 62.4 µM

**Q.** And the TGI ([10]; HEK-293t)?
**A.** 58.8 µM

**Q.** And the CC50 [11]?
**A.** 19 µM

**Q.** And the GI50 ([11]; LP9)?
**A.** 9.2 µM

**Q.** What about the TGI ([11]; LP9) of the same compound?
**A.** 13.5 µM

**Q.** And the “highest level that could be tested based upon maximum solubility in aqueous medium” value ([4]; aqueous medium)?
**A.** 150 µM

**Q.** What about the “amount of drug that was dissolved, averaging (SD)” value ([4]; aqueous solvents/medium) of the same compound?
**A.** 49.7±8.1%

**Q.** What about the solubility ([4]; de-ionized water, PBS, DMSO, RPMI or DMEM base medium with and without FBS) of the same compound?
**A.** partially soluble in all media evaluated except DMSO

**Q.** And the “concentration above which a hydrogel forms” value ([4]; in medium)?
**A.** above 300 micromolar

**Q.** And the time remained stable ([5]; dissolved in FBS enriched medium)?
**A.** > 6 months

**Q.** What about the “time stability maintained without apparent loss of activity” value ([5]; original viscous polymer stored at −20° C.) of the same compound?
**A.** 60 months

**Q.** What about the “LC99, amount of each drug in combination” value ([12]; 4SP65-cisplatin combined) of the same compound?
**A.** 8 µM

**Q.** What about the GI50 ([12]; cisplatin series) of the same compound?
**A.** 5.4 ± 2.5 µM

**Q.** What about the IC50 ([12]; cisplatin series) of the same compound?
**A.** 6.8 ± 1.3 µM

**Q.** What about the LC99 ([12]; cisplatin series) of the same compound?
**A.** 14.9 ± 3.8 µM

**Q.** What about the TGI ([12]; cisplatin series) of the same compound?
**A.** 8.3 ± 1.5 µM

**Q.** And the GI50 ([12]; gefitinib series)?
**A.** 6 ± 0.6 µM

**Q.** What about the IC50 ([12]; gefitinib series) of the same compound?
**A.** 7.4 ± 0.7 µM

**Q.** And the LC99 ([12]; gefitinib series)?
**A.** 12.3 ± 3.8 µM

**Q.** What about the TGI ([12]; gefitinib series) of the same compound?
**A.** 11.3 ± 1.5 µM
